# Results: ChEMBL document CHEMBL3751787, “Novel chromenedione derivatives displaying inhibition of protein tyrosine phosphatase 1B (PTP1B) from Flemingia philippinensis” (Bioorg Med Chem Lett, 2016)
# pIC50, pKi: −log10 of the molar value.
# What was measured:
# [1] = biological target: T1, Tyrosine-protein phosphatase non-receptor type 1 (Homo sapiens, UniProt P18031); experiment: Inhibition of human recombinant PTP1B using p-nitrophenyl phosphate as substrate by spectrophotometric analysis
# T1 sequence (P18031 whole entry): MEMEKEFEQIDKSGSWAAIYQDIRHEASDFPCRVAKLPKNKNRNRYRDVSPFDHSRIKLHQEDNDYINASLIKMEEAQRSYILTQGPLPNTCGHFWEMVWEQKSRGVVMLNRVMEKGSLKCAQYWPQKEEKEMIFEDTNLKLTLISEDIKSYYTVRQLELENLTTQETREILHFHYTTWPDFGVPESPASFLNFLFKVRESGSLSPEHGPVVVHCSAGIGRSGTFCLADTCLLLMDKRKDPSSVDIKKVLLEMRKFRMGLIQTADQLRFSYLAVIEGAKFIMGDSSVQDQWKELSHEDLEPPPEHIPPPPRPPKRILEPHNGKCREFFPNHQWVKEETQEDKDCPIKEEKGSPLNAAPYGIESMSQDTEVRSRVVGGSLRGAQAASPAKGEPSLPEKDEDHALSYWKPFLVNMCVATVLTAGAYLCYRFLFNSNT
# [2] = biological target: T1, Tyrosine-protein phosphatase non-receptor type 1; experiment: Non-competitive inhibition of human recombinant PTP1B using p-nitrophenyl phosphate as substrate by spectrophotometry based Lineweaver-Burk plot
# [3] = biological target: T1, Tyrosine-protein phosphatase non-receptor type 1; experiment: Competitive inhibition of human recombinant PTP1B using p-nitrophenyl phosphate as substrate by spectrophotometry based Lineweaver-Burk plot
pIC50 [1],pKi [2],pKi [3],SMILES
4.53,,4.75,COc1ccc(CCC(=O)C2=C(O)C(CC=C(C)C)=C3OC(C)(C)C=CC3(CC=C(C)C)C2=O)cc1O (stereo unspecified)
4.69,,4.91,COc1ccc(CC/C(O)=C2\C(=O)C(CC=C(C)C)=C3OC(C)(C)C=CC3(CC=C(C)C)C2=O)cc1O (stereo unspecified)
5.19,,5.47,COc1ccc(CCC(=O)C2=C(O)C(CC=C(C)C)=C3OC(C)(C)C=CC3(CC=C(C)C)C2=O)cc1 (stereo unspecified)
4.76,4.72,,COc1cc(-c2coc3c(CC=C(C)C)c(O)c(CC=C(C)C)c(O)c3c2=O)ccc1O [FLEMINGSIN]

# The next lines start with the molecule.
SMILES,pIC50 [1],pKi [2],pKi [3]
CC(C)=CCc1c(O)c(CC=C(C)C)c2occ(-c3ccc(O)c(O)c3)c(=O)c2c1O,5.62,5.60,
CC(C)=CCc1c(O)c(CC=C(C)C)c2occ(-c3ccc(O)cc3)c(=O)c2c1O,5.03,5.02,
CC(C)=CCc1c2c(c(O)c3c(=O)c(-c4ccc(O)c(O)c4)coc13)C=CC(C)(C)O2 [AURICULASIN],5.44,5.36,
CC(C)=CCc1c2c(c3occ(-c4ccc(O)cc4)c(=O)c3c1O)C=CC(C)(C)O2 [OSAJIN],4.63,4.52,
